Source: US11046699B2, “Pyrazolo-pyrimidin-amino-cycloalkyl compounds and their therapeutic uses” (RAPT THERAPEUTICS, INC., priority 2018, dated 2021)
Structures can show the parent of a compound that is named as a salt.

Each compound was assayed against GCN2 (Homo sapiens, UniProt Q9P2K8) (assay: GCN2 enzymatic endpoint assay: phosphorylation of GFP-eIF2α measured by TR-FRET (Lanthascreen)). Settings: GCN2 biochemical IC50; 4 nM GCN2, 2 μM ATP, 80 nM GFP-eIF2α, 90 min RT; read-out: GCN2 activity.
Assay type: biochemical
Method in brief: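 2 μM ATP, 80 nM GFP-eIF2α, RT, 90 min; EDTA stop. Tb-anti-phospho antibody TR-FRET read, 520/495 nm ratio.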

Sequence of GCN2 (Q9P2K8 whole entry): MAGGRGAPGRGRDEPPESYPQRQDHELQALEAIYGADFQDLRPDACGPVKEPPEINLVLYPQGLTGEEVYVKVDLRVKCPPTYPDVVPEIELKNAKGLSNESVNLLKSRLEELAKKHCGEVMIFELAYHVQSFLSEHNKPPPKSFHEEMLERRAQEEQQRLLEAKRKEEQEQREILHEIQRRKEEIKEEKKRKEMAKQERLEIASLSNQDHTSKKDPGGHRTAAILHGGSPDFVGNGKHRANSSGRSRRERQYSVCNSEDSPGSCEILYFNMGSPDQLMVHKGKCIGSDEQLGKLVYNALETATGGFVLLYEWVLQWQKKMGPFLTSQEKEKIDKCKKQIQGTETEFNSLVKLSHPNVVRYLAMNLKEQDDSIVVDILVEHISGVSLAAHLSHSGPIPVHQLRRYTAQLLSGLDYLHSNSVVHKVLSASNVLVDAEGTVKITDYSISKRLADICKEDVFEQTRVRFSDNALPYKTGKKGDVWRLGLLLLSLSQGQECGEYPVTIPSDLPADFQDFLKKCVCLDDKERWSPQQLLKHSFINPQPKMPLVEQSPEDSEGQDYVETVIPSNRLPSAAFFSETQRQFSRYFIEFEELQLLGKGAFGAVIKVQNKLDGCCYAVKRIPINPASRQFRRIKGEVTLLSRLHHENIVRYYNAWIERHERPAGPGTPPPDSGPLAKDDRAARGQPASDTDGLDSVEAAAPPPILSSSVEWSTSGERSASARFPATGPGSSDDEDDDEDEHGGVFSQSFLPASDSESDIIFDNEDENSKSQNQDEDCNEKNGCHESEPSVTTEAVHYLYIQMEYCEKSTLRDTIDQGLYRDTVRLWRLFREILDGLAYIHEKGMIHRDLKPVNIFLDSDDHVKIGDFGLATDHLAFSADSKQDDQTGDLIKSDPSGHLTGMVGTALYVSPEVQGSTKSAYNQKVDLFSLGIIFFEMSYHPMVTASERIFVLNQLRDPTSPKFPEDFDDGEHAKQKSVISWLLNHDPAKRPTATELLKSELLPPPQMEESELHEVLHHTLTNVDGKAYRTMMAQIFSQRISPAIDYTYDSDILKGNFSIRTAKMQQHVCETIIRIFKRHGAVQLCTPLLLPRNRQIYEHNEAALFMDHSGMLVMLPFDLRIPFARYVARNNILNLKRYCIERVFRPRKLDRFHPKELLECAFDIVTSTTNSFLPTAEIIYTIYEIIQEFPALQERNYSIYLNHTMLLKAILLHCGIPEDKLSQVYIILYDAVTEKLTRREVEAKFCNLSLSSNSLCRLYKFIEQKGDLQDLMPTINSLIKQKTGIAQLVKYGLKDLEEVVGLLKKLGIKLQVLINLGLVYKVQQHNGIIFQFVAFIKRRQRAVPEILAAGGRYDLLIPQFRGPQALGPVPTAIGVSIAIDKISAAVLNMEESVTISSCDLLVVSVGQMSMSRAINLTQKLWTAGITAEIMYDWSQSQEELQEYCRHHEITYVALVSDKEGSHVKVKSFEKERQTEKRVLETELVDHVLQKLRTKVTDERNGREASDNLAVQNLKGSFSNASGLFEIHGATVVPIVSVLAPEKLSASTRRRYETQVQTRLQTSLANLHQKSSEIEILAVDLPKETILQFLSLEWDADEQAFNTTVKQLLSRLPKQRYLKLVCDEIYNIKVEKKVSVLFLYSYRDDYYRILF

Row | Structure (SMILES) | IC50
1 | Cc1nnc(-c2ccc(-n3nc(Br)c4cnc(N[C@@H]5CC[C@](C(=O)N6CCNCC6)(C(C)C)C5)nc43)cc2CCC(N)=O)s1 [Example 28, 3-(5-(3-bromo-6-(((1R,3R)-3-isopropyl-3-(piperazine-1-carbonyl)cyclopentyl)amino)-1H-pyrazolo[3,4-d]pyrimidin-1-yl)-2-(5-methyl-1,3,4-thiadiazol-2-yl)phenyl)propanamide; 2,2,2-trifluoroacetic acid] | < 25 nM
2 | CNS(=O)(=O)[C@@H]1CC[C@@H](Nc2ncc3c(Br)nn(-c4ccc(-c5nnc(C)s5)cc4)c3n2)C1 [Example 68, (1R,3R)-3-((3-bromo-1-(4-(5-methyl-1,3,4-thiadiazol-2-yl)phenyl)-1H-pyrazolo[3,4-d]pyrimidin-6-yl)amino)-N-methylcyclopentane-1-sulfonamide] | < 25 nM
3 | O=C1NCC[C@]12CC[C@@H](Nc1ncc3c(Br)nn(-c4cc(F)c5ncccc5c4)c3n1)C2 [Example 48, (5S,7R)-7-((3-bromo-1-(8-fluoroquinolin-6-yl)-1H-pyrazolo[3,4-d]pyrimidin-6-yl)amino)-2-azaspiro[4.4]nonan-1-one hydrochloride] | 25 to 200 nM

Same assay, conditions: tested as described in Example 77; compound and/or hydrochloride, dihydrochloride or trifluoroacetic acid salt; read-out: IC 50 Activity

Row | Structure (SMILES) | IC50
4 | O=C(N[C@H]1C[C@H](O)C1)[C@@H]1CC[C@@H](Nc2ncc3c(Br)nn(-c4cc(F)c5ncccc5c4)c3n2)C1 | 25 to 200 nM
5 | CNC(=O)[C@]1(C)CC[C@@H](Nc2ncc3c(Br)nn(-c4cc(Cl)cc(CC#N)c4)c3n2)C1 [(1R,3R)-3-[[3-bromo-1-[3-chloro-5-(cyanomethyl)phenyl]pyrazolo[3,4-d]pyrimidin-6-yl]amino]-N,1-dimethyl-cyclopentanecarboxamide] | 25 to 200 nM
6 | CNC(=O)[C@@H]1CC[C@@H](Nc2ncc3c(Br)nn(-c4ccc5nc(C)c(F)cc5c4)c3n2)C1 [(1R,3R)-3-((3-bromo-1-(3-fluoro-2-methyl-quinolin-6-yl)-1H-pyrazolo[3,4-d]pyrimidin-6-yl)amino)-N-methylcyclopentane-1-carboxamide] | 25 to 200 nM
7 | CNC(=O)[C@]1(C)CC[C@@H](Nc2ncc3c(Br)nn(-c4cc(O)c5c(c4)OCC(=O)N5C)c3n2)C1 [(1R,3R)-3-[[3-bromo-1-(5-hydroxy-4-methyl-3-oxo-1,4-benzoxazin-7-yl)pyrazolo[3,4-d]pyrimidin-6-yl]amino]-N,1-dimethyl-cyclo-pentanecarboxamide] | 25 to 200 nM
8 | CC1(O)CC[C@@H](Nc2ncc3c(Br)nn(-c4cc(CCN)c5ncccc5c4)c3n2)C1 (some centres unmarked) | 25 to 200 nM
9 | O=C([C@@H]1CC[C@@H](Nc2ncc3c(Br)nn(-c4cc(F)c5ncccc5c4)c3n2)C1)N1CCN2C(=O)CC[C@H]2C1 [(8aS)-2-[(1R,3R)-3-[[3-bromo-1-(8-fluoro-6-quinolyl)pyrazolo[3,4-d]pyrimidin-6-yl]amino]cyclopentane-carbonyl]-1,3,4,7,8,8a-hexahydro-pyrrolo[1,2-a]pyrazin-6-one] | < 25 nM
10 | CNC(=O)[C@]1(C)CC[C@@H](Nc2ncc3c(Br)nn(-c4ccc5c(c4)S(=O)(=O)CC(=O)N5C)c3n2)C1 | 25 to 200 nM
11 | CNC(=O)[C@]1(C)CC[C@@H](Nc2ncc3c(Br)nn(-c4cccc(Oc5ccncc5)c4)c3n2)C1 [(1R,3R)-3-[[3-bromo-1-[3-(4-pyridyloxy)phenyl]pyrazolo[3,4-d]pyrimidin-6-yl]amino]-N,1-dimethyl-cyclopentane-carboxamide] | 25 to 200 nM
12 | Cc1nnc(-c2ccc(-n3nc(Br)c4cnc(NC5CCOC5)nc43)cc2)s1 (centres unmarked) [3-bromo-1-[4-(5-methyl-1,3,4-thiadiazol-2-yl)phenyl]-N-tetrahydrofuran-3-yl-pyrazolo [3,4-d]pyrimidin-6-amine] | 25 to 200 nM
13 | CN(C)C(=O)[C@@H]1CC[C@@H](Nc2ncc3c(Br)nn(-c4cc(F)c5ncccc5c4)c3n2)C1 [(1R,3R)-3-((3-bromo-1-(8-fluoroquinolin-6-yl)-1H-pyrazolo[3,4-d]pyrimidin-6-yl)amino)-N,N-dimethylcyclopentane-1-carboxamide] | 25 to 200 nM
14 | CNC(=O)[C@]1(C)CC[C@@H](Nc2ncc3c(Br)nn(-c4cc(Cl)cc([C@@H]5COC(=O)N5)c4)c3n2)C1 [(1R,3R)-3-[[3-bromo-1-[3-chloro-5-[(4R)-2-oxooxazolidin-4-yl]phenyl]pyrazolo[3,4-d]pyrimidin-6-yl]amino]-N,1-dimethyl-cyclopentanecarboxamide] | < 25 nM
15 | CNC(=O)[C@]1(C)CC[C@@H](Nc2ncc3c(Br)nn(-c4ccc(-c5ncco5)c(NC(=O)C5CCNCC5)c4)c3n2)C1 [N-[5-[3-bromo-6-[[(1R,3R)-3-methyl-3-(methylcarbamoyl)cyclopentyl]amino]pyrazolo[3,4-d]pyrimidin-1-yl]-2-oxazol-2-yl-phenyl]piperidine-4-carboxamide] | < 25 nM
16 | CNC(=O)[C@]1(C)CC[C@@H](Nc2ncc3c(Br)nn(-c4cc(CC5(N)CC5)c5ncccc5c4)c3n2)C1 [(1R,3R)-3-[[1-[8-[(1-aminocyclopropyl)methyl]-6-quinolyl]-3-bromo-pyrazolo [3,4-d]pyrimidin-6-yl]amino]-N,1-dimethyl-cyclopentanecarboxamide] | 25 to 200 nM
17 | Cc1nnc(-c2ccc(-n3nc(Br)c4cnc(N[C@@H]5CC[C@@H](P(C)(C)=O)C5)nc43)cc2CCS(C)(=O)=O)s1 [3-bromo-N-[(1R,3R)-3-dimethylphosphoryl-cyclopentyl]-1-[3-(2-methylsulfonylethyl)-4-(5-methyl-1,3,4-thiadiazol-2-yl)phenyl] pyrazolo[3,4-d]pyrimidin-6-amine] | 25 to 200 nM
18 | CNC(=O)[C@]1(C)CCC(Nc2ncc3c(Br)nn(-c4cc(F)cc(C5COC5)c4)c3n2)C1 (stereo partly drawn) [(1R)-3-[[3-bromo-1-[3-fluoro-5-(oxetan-3-yl)phenyl]pyrazolo[3,4-d]pyrimidin-6-yl]amino]-N,1-dimethyl-cyclopentane-carboxamide] | 25 to 200 nM
19 | CC1(C(=O)NCC(F)(F)F)CC[C@@H](Nc2ncc3c(Br)nn(-c4cc(F)c5ncccc5c4)c3n2)C1 (stereo partly drawn) [(3R)-3-[[3-bromo-1-(8-fluoro-6-quinolyl)pyrazolo[3,4-d]pyrimidin-6-yl]amino]-1-methyl-N-(2,2,2-trifluoroethyl)cyclo-pentanecarboxamide] | 25 to 200 nM
20 | CNC(=O)[C@]1(C)CC[C@@H](Nc2ncc3c(Br)nn(-c4cc(C#N)cc(OCC(C)O)c4)c3n2)C1 (stereo partly drawn) [(1R,3R)-3-[[3-bromo-1-[3-cyano-5-(2-hydroxypropoxy)phenyl]pyrazolo [3,4-d]pyrimidin-6-yl]amino]-N,1-dimethyl-cyclopentanecarboxamide] | 25 to 200 nM
21 | CC(C)OCCNC(=O)[C@@H]1CC[C@@H](Nc2ncc3c(Br)nn(-c4ccc5ncccc5c4)c3n2)C1 [(1R,3R)-3-((3-bromo-1-(quinolin-6-yl)-1H-pyrazolo[3,4-d]pyrimidin-6-yl)amino)-N-(2-isopropoxyethyl)cyclopentane-1-carboxamide] | 200 to 500 nM
22 | CNC(=O)[C@]1(C)CC[C@@H](Nc2ncc3c(Br)nn(-c4cc(F)cc(CC#N)c4)c3n2)C1 [(1R,3R)-3-[[3-bromo-1-[3-(cyanomethyl)-5-fluoro-phenyl]pyrazolo[3,4-d]pyrimidin-6-yl]amino]-N,1-dimethyl-cyclopentane-carboxamide] | 25 to 200 nM
23 | O=C([C@@H]1CC[C@@H](Nc2ncc3c(Br)nn(-c4ccc5ncccc5c4)c3n2)C1)N1CCC2(CCCCO2)C1 (stereo partly drawn) [((1R,3R)-3-((3-bromo-1-(quinolin-6-yl)-1H-pyrazolo[3,4-d]pyrimidin-6-yl)amino)cyclopentyl)(6-oxa-2-azaspiro[4.5]decan-2-yl)methanone] | 200 to 500 nM
24 | Cc1nnc(-c2ccc(-n3nc(Br)c4cnc(N[C@@H]5CCC(C)(C(=O)N6CCOCC6)C5)nc43)cc2)o1 (stereo partly drawn) [[(3R)-3-[[3-bromo-1-[4-(5-methyl-1,3,4-oxadiazol-2-yl)phenyl]pyrazolo[3,4-d]pyrimidin-6-yl]amino]-1-methyl-cyclopentyl]-morpholino-methanone] | 25 to 200 nM
25 | CNC(=O)[C@]1(C)CC[C@@H](Nc2ncc3c(Br)nn(-c4cc(CCCO)c5c(c4)CCC(=O)N5C)c3n2)C1 | < 25 nM
26 | CNC(=O)[C@@]1(CC(F)F)CC[C@@H](Nc2ncc3c(Br)nn(-c4cc(CCO)c5ncccc5c4)c3n2)C1 [(1S,3R)-3-[[3-bromo-1-[8-(2-hydroxyethyl)-6-quinolyl]pyrazolo[3,4-d]pyrimidin-6-yl]amino]-1-(2,2-difluoroethyl)-N-methyl-cyclopentanecarboxamide] | 25 to 200 nM
27 | CNC(=O)[C@]1(C)CC[C@@H](Nc2ncc3c(Br)nn(-c4cc5c(c(OCC(F)F)c4)N(C)C(=O)CO5)c3n2)C1 [(1R,3R)-3-[[3-bromo-1-[5-(2,2-difluoro-ethoxy)-4-methyl-3-oxo-1,4-benzoxazin-7-yl]pyrazolo[3,4-d]pyrimidin-6-yl]amino]-N,1-dimethyl-cyclopentanecarboxamide] | < 25 nM
28 | CNC(=O)C1(C)CC[C@@H](Nc2ncc3c(Br)nn(-c4ccc5cnccc5c4)c3n2)C1 (mixture of isomers) | 200 to 500 nM
29 | CNC(=O)[C@]1(C)CC[C@@H](Nc2ncc3c(Br)nn(-c4ccc5c(c4)N(C(=O)C4CNC4)CC5)c3n2)C1 [(1R,3R)-3-[[1-[1-(azetidine-3-carbonyl)indolin-6-yl]-3-bromo-pyrazolo[3,4-d]pyrimidin-6-yl]amino]-N,1-dimethyl-cyclopentanecarboxamide] | 25 to 200 nM
30 | COCCNC(=O)[C@@H]1CC[C@@H](Nc2ncc3c(Br)nn(-c4cc(Cl)c5ncccc5c4)c3n2)C1 [(1R,3R)-3-((3-bromo-1-(8-chloroquinolin-6-yl)-1H-pyrazolo[3,4-d]pyrimidin-6-yl)amino)-N-(2-methoxyethyl)cyclopentane-1-carboxamide] | 25 to 200 nM
31 | CNC(=O)[C@]1(C)CC[C@@H](Nc2ncc3c(Br)nn(-c4ccc(-c5nnc(C)[nH]5)cc4)c3n2)C1 [(1R,3R)-3-[[3-bromo-1-[4-(5-methyl-4H-1,2,4-triazol-3-yl)phenyl]pyrazolo[3,4-d]pyrimidin-6-yl]amino]-N,1-dimethyl-cyclopentanecarboxamide] | 25 to 200 nM
32 | CNC(=O)[C@]1(C)CC[C@@H](Nc2ncc3c(Br)nn(-c4ccc5ncn(CCN6C(=O)c7ccccc7C6=O)c(=O)c5c4)c3n2)C1 | 25 to 200 nM
